Where a name gives a salt, the structure may show the parent alone.
Biological target: T1, recombinant guanylate cyclase reporter cell line (Rattus norvegicus, UniProt P19686+P20595)
T1 construct: expressed in transfected cells
T1 sequence (P19686 1-690): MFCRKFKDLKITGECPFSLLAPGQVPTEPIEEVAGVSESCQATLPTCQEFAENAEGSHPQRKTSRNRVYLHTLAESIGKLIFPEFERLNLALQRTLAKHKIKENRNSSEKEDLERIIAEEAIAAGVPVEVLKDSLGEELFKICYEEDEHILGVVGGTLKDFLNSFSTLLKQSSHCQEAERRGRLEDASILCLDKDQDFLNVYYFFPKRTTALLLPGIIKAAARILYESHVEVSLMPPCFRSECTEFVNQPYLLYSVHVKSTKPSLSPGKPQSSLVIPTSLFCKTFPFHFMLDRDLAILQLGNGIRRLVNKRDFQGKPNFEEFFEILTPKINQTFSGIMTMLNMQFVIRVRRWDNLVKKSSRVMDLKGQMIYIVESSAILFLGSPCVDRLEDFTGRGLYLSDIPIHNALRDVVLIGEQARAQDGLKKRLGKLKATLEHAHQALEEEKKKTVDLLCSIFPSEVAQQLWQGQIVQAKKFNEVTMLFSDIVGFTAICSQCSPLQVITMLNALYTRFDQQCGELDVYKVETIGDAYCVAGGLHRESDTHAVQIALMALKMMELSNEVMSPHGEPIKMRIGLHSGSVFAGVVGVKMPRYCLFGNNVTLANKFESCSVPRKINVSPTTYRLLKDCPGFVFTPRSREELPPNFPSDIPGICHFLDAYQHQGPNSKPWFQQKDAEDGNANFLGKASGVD
T1 sequence (P20595 1-619): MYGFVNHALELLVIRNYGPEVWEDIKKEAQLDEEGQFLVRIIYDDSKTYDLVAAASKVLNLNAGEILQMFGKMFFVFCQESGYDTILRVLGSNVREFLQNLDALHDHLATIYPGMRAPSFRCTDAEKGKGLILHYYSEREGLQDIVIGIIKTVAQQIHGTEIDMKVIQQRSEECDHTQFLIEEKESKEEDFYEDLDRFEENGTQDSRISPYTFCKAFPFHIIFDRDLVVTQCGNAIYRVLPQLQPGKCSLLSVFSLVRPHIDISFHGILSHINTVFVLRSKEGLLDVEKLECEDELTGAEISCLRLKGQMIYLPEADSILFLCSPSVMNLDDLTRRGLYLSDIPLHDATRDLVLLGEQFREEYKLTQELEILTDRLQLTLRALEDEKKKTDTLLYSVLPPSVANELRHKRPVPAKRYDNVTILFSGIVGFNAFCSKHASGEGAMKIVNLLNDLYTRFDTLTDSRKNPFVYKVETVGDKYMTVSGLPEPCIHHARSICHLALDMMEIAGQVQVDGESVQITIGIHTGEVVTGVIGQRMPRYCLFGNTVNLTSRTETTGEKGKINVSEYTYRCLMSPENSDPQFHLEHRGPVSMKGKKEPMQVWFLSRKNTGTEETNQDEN
Experiment: Effect on a recombinant guanylate cyclase reporter cell line
Format: cell-based
Settings: MEC = minimum effective concentration; in some cases mean values for individual determinations
Protocol: B-2. Effect on a Recombinant Guanylate Cyclase Reporter Cell Line
The cellular action of the compounds of the invention is determined using a recombinant guanylate cyclase reporter cell line, as described in F. Wunder et al., Anal. Biochem. 339, 104-112 (2005).
Representative MEC values (MEC=minimum effective concentration) for the compounds of the invention are shown in the table below (in some cases as mean values for individual determinations): […]

MEC | Structure (SMILES)
0.3 µM | Cc1cn2c(C(=O)NCC(C)(N)CC(F)F)c(C)nc2c(OCc2c(F)cccc2F)n1 (single isomer, unassigned; enantiomer b) [Example 42, ent-N-(2-Amino-4,4-difluoro-2-methylbutyl)-8-[(2,6-difluorobenzyl)oxy]-2,6-dimethylimidazo[1,2-a]pyrazine-3-carboxamide (enantiomer B)]
3 µM | Cc1cn2c(C(=O)NC(CCCC(F)(F)F)C(C)(C)O)c(C)nc2c(OCc2c(F)cccc2F)n1 (single isomer, unassigned; ent-8) [Example 6, ent-8[(2,6-Difluorobenzyl)oxy]-2,6-dimethyl-N-(7,7,7-trifluoro-2-hydroxy-2-methylheptan-3-yl)imidazo[1,2-a]pyrazine-3-carboxamide]
0.3 µM | Cc1cn2c(C(=O)NNc3ccc(F)cc3)c(C)nc2c(OCc2c(F)cccc2F)n1 [Example 52, 8-[(2,6-difluorobenzyl)oxy]-N′-(4-fluorophenyl)-2,6-dimethylimidazo[1,2-a]pyrazine-3-carbohydrazide]
3 µM | Cc1cn2c(C(=O)NC[C@H]3CC[C@H](C(=O)O)CC3)c(C)nc2c(OCc2c(F)cccc2F)n1.Cl [Example 11, trans-4-{[({8-[(2,6-Difluorobenzyl)oxy]-2,6-dimethylimidazo[1,2-a]pyrazin-3-yl}carbonyl)amino]methyl}cyclohexanecarboxylic acid hydrochloride]
1 µM | CCC(N)(CC)CNC(=O)c1c(C)nc2c(OCc3c(F)cccc3F)nc(C)cn12 [Example 15, N-(2-amino-2-ethylbutyl)-8-[(2,6-difluorobenzyl)oxy]-2,6-dimethylimidazo[1,2-a]pyrazine-3-carboxamide]
1.0 µM | Cc1cn2c(C(=O)NCCCCCC#N)c(C)nc2c(OCc2c(F)cccc2F)n1 [Example 49, N-(5-Cyanopentyl)-8-[(2,6-difluorobenzyl)oxy]-2,6-dimethylimidazo[1,2-a]pyrazine-3-carboxamide]
1 µM | CCCC[C@H](C)NC(=O)c1c(C)nc2c(OCc3c(F)cccc3F)nc(C)cn12 [Example 2, 8-[(2,6-Difluorobenzyl)oxy]-N-[(2S)-hexan-2-yl]-2,6-dimethylimidazo[1,2-a]pyrazine-3-carboxamide]
3.0 µM | Cc1cn2c(C(=O)NNC(=O)CN(C)C)c(C)nc2c(OCc2c(F)cccc2F)n1 [Example 53, 8-[(2,6-difluorobenzyl)oxy]-N′-[(dimethylamino)acetyl]-2,6-dimethylimidazo[1,2-a]pyrazine-3-carbohydrazide]
3 µM | CCC(CO)(CO)NC(=O)c1c(C)nc2c(OCc3c(F)cccc3F)nc(C)cn12 [Example 35, 8-[(2,6-difluorobenzyl)oxy]-N-[1-hydroxy-2-(hydroxymethyl)butan-2-yl]-2,6-dimethylimidazo[1,2-a]pyrazine-3-carboxamide]
1 µM | Cc1cn2c(C(=O)NC(CCC(F)(F)C(F)(F)F)C(C)(C)O)c(C)nc2c(OCc2c(F)cccc2F)n1 (single isomer, unassigned; ent-8) [Example 29, ent-8-[(2,6-difluorobenzyl)oxy]-2,6-dimethyl-N-(6,6,7,7,7-pentafluoro-2-hydroxy-2-methylheptan-3-yl)imidazo[1,2-a]pyrazine-3-carboxamide]
3 µM | Cc1cn2c(C(=O)NC(C)COCC(F)(F)F)c(C)nc2c(OCc2c(F)cccc2F)n1 (racemic) [Example 31, rac-8-[(2,6-difluorobenzyl)oxy]-2,6-dimethyl-N-[1-(2,2,2-trifluoroethoxy)propan-2-yl]imidazo[1,2-a]pyrazine-3-carboxamide]
3.0 µM | C=CCONC(=O)c1c(C)nc2c(OCc3c(F)cccc3F)nc(C)cn12 [Example 51, N-(allyloxy)-8-[(2,6-difluorobenzyl)oxy]-2,6-dimethylimidazo[1,2-a]pyrazine-3-carboxamide trifluoroacetate]
10 µM | Cc1cn2c(C(=O)NOCCO)c(C)nc2c(OCc2c(F)cccc2F)n1 [Example 44, 8-[(2,6-Difluorobenzyl)oxy]-N-(2-hydroxyethoxy)-2,6-dimethylimidazo[1,2-a]pyrazine-3-carboxamide]
3 µM | Cc1cn2c(C(=O)N[C@H]3CCOC3=O)c(C)nc2c(OCc2c(F)cccc2F)n1 [Example 34, 8-[(2,6-difluorobenzyl)oxy]-2,6-dimethyl-N-[(3S)-2-oxotetrahydrofuran-3-yl]imidazo[1,2-a]pyrazine-3-carboxamide]
1 µM | Cc1cn2c(C(=O)NCC(C)(N)CC(C)C)c(C)nc2c(OCc2c(F)cccc2F)n1 (racemic) [Example 5, rac-N-(2-Amino-2,4-dimethylpentyl)-8-[(2,6-difluorobenzyl)oxy]-2,6-dimethylimidazo[1,2-a]pyrazine-3-carboxamide]

More lines, now with the values behind:

Structure (SMILES) | MEC
Cc1cn2c(C(=O)NCc3ncc[nH]3)c(C)nc2c(OCc2c(F)cccc2F)n1 [Example 25, 8-[(2,6-difluorobenzyl)oxy]-N-(1H-imidazol-2-ylmethyl)-2,6-dimethylimidazo[1,2-a]pyrazine-3-carboxamide] | 3 µM
Cc1cn2c(C(=O)Nc3c(C)nn(CCO)c3C)c(C)nc2c(OCc2c(F)cccc2F)n1 [Example 18, 8-[(2,6-difluorobenzyl)oxy]-N-[1-(2-hydroxyethyl)-3,5-dimethyl-1H-pyrazol-4-yl]-2,6-dimethylimidazo[1,2-a]pyrazine-3-carboxamide] | 3 µM
Cc1cn2c(C(=O)NCCC3(O)CCCC3)c(C)nc2c(OCc2c(F)cccc2F)n1 [Example 12, 8-[(2,6-Difluorobenzyl)oxy]-N-[2-(1-hydroxycyclopentyl)ethyl]-2,6-dimethylimidazo[1,2-a]pyrazine-3-carboxamide] | 1 µM
Cc1cn2c(C(=O)NCCN3CCOCC3)c(C)nc2c(OCc2c(F)cccc2F)n1 [Example 22, 8-[(2,6-difluorobenzyl)oxy]-2,6-dimethyl-N-[2-(morpholin-4-yl)ethyl]imidazo[1,2-a]pyrazine-3-carboxamide] | 3 µM
CCCC[C@H](CO)NC(=O)c1c(C)nc2c(OCc3c(F)cccc3F)nc(C)cn12 [Example 3, 8-[(2,6-Difluorobenzyl)oxy]-N-[(2R)-1-hydroxyhexan-2-yl]-2,6-dimethylimidazo[1,2-a]pyrazine-3-carboxamide] | 3 µM
Cc1cn2c(C(=O)NC(C#N)c3ccc(Cl)cc3)c(C)nc2c(OCc2c(F)cccc2F)n1 (racemic) [Example 46, rac-N-[(4-chlorophenyl)(cyano)methyl]-8-[(2,6-difluorobenzyl)oxy]-2,6-dimethylimidazo[1,2-a]pyrazine-3-carboxamide] | 10 µM
Cc1nc2c(OCC3CCC3)nccn2c1C(=O)NCc1ccc(F)c(F)c1 [Example 48, 8-(Cyclobutylmethoxy)-N-(3,4-difluorobenzyl)-2-methylimidazo[1,2-a]pyrazine-3-carboxamide] | 3.0 µM
Cc1cn2c(C(=O)NC3CC4CCCC(C3)N4C)c(C)nc2c(OCc2c(F)cccc2F)n1 (stereo not shown) [Example 36, 8-[(2,6-difluorobenzyl)oxy]-2,6-dimethyl-N-(9-methyl-9-azabicyclo[3.3.1]non-3-yl)imidazo[1,2-a]pyrazine-3-carboxamide] | 1 µM
Cc1cn2c(C(=O)NC3CC(C)(C)NC(C)(C)C3)c(C)nc2c(OCc2c(F)cccc2F)n1 [Example 16, 8-[(2,6-difluorobenzyl)oxy]-2,6-dimethyl-N-(2,2,6,6-tetramethylpiperidin-4-yl)imidazo[1,2-a]pyrazine-3-carboxamide] | 3 µM
Cc1cn2c(C(=O)Nc3cnn4ccccc34)c(C)nc2c(OCc2c(F)cccc2F)n1 [Example 30, 8-[(2,6-difluorobenzyl)oxy]-2,6-dimethyl-N-(pyrazolo[1,5-a]pyridin-3-yl)imidazo[1,2-a]pyrazine-3-carboxamide] | 3 µM

Source: patent US20160176880A1, “SUBSTITUTED IMIDAZO[1,2-A]PYRAZINECARBOXAMIDES AND USE THEREOF” (BAYER PHARMA AKTIENGESELLSCHAFT, priority 2013, published 2016)
